Results reported in US11236087B2, “Highly active pyrazolo-piperidine substituted indole-2-carboxamides active against the hepatitis B virus (HBV)” (AiCuris GmbH & Co. KG, priority 2017, dated 2022).

Legend:
HBV = assay: Determination of HBV DNA from the supernatants of HepAD38 cells (anti-HBV activity); type: cell-based, hepatitis B virus; conditions: Hepatitis B virus, 144 h; HBV DNA in HepAD38 supernatant, day 6, qPCR; read-out: Cell Activity (EC50)
How it was run: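 Supernatant viral DNA was measured by LightCycler qPCR, calibrated with pCH-9/3091 plasmid, 6 days after tetracycline-free HepAD38 cultures received half-log serial compound dilutions; untreated and tetracycline-treated cells served as controls; EC50 was fitted by non-linear regression.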

[1] = Cell viability assay (AlamarBlue) in HepAD38 cells; conditions: human
HBV core protein = target: T1, HBV core protein (UniProt P03146); assay: Biochemical capsid assembly assay (fluorescence quenching); design: species or system hepatitis B virus; conditions: read-out: Assembly Activity (IC50); BODIPY-FL labelled core protein, 300 μM NaCl, read 6 min after start
T1 construct: fused on or other part: BODIPY-FL maleimide label on the C-terminal Cys150
How it was run: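 Assembly-induced fluorescence quenching (477/525 nm) was measured 6 min after NaCl addition ([…]), against 2.5 M and 0 M NaCl controls. The labelled C150 core dimer (truncated at 149) at 1.0-2.0 μM in HEPES pH 7.5 was tested with eight half-log compound dilutions, top 100, 31.6 or 10 μM. EC50 was obtained by non-linear fit from triplicates run three times.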

T1 sequence (P03146 whole entry, looked up, the tested form may be a part): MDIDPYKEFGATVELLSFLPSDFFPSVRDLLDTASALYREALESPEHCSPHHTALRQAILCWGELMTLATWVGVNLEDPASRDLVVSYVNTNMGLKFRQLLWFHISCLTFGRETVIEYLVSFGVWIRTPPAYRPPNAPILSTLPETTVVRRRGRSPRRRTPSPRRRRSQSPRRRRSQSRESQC

| SMILES | EC50 (HBV) [µM] | CC50 at 6 days [1] [µM] | IC50 (HBV core protein) [µM] |
| --- | --- | --- | --- |
| CON(C)C(=O)c1n[nH]c2c1CN(C(=O)c1cc3ccccc3[nH]1)CC2 [Example 138, 5-(1H-indole-2-carbonyl)-N-methoxy-N-methyl-1H,4H,5H,6H,7H-pyrazolo[4,3-c]pyridine-3-carboxamide] | < 1 | > 100 | < 5 |
| CCOC(=O)c1n[nH]c2c1CN(C(=O)c1cc3ccccc3[nH]1)CC2 [Example 140, ethyl 5-(1H-indole-2-carbonyl)-1H,4H,5H,6H,7H-pyrazolo[4,3-c]pyridine-3-carboxylate] | < 100 | > 100 | < 5 |
| O=C(c1cc2c(Cl)cc(F)cc2[nH]1)N1CCc2[nH]ncc2C1 [Example 142, 4-chloro-6-fluoro-2-{1H,4H,5H,6H,7H-pyrazolo[4,3-c]pyridine-5-carbonyl}-1H-indole] | < 1 | > 100 | < 5 |
| C[C@H]1CCCCN1C(=O)c1n[nH]c2c1CN(C(=O)c1cc3ccccc3[nH]1)CC2 [Example 147, 2-{3-[(2S)-2-methylpiperidine-1-carbonyl]-1H,4H,5H,6H,7H-pyrazolo[4,3-c]pyridine-5-carbonyl}-1H-indole] | < 1 | > 10 | 5 to 10 |
| C[C@@H]1CCCCN1C(=O)c1n[nH]c2c1CN(C(=O)c1cc3ccccc3[nH]1)CC2 [Example 148, 2-{3-[(2R)-2-methylpiperidine-1-carbonyl]-1H,4H,5H,6H,7H-pyrazolo[4,3-c]pyridine-5-carbonyl}-1H-indole] | 1 to 25 | > 10 | 5 to 10 |
| CC(=O)NCCN(C)C(=O)c1n[nH]c2c1CN(C(=O)c1cc3ccccc3[nH]1)CC2 [Example 149, N-(2-{1-[5-(1H-indole-2-carbonyl)-1H,4H,5H,6H,7H-pyrazolo[4,3-c]pyridin-3-yl]-N-methylformamido}ethyl)acetamide] | 1 to 25 | > 10 | < 100 |
| CN(CCS(C)(=O)=O)C(=O)c1n[nH]c2c1CN(C(=O)c1cc3ccccc3[nH]1)CC2 [Example 150, 5-(1H-indole-2-carbonyl)-N-(2-methanesulfonylethyl)-N-methyl-1H,4H,5H,6H,7H-pyrazolo[4,3-c]pyridine-3-carboxamide] | 1 to 25 | > 10 | < 100 |
| O=C(c1cc2ccccc2[nH]1)N1CCc2[nH]nc(C(=O)N3C[C@H]4CCO[C@H]4C3)c2C1 [Example 152, 2-{3-[(3aR,6aR)-hexahydro-2H-furo[2,3-c]pyrrole-5-carbonyl]-1H,4H,5H,6H,7H-pyrazolo[4,3-c]pyridine-5-carbonyl}-1H-indole] | 1 to 25 | > 10 | < 100 |
| O=C(c1cc2ccccc2[nH]1)N1CCc2[nH]nc(C(=O)N3CC4COCC4C3)c2C1 (stereo not drawn) [Example 153, 2-(3-{hexahydro-1H-furo[3,4-c]pyrrole-5-carbonyl}-1H,4H,5H,6H,7H-pyrazolo[4,3-c]pyridine-5-carbonyl)-1H-indole] | 1 to 25 | > 10 | < 100 |
| COCC1(N(C)C(=O)c2n[nH]c3c2CN(C(=O)c2cc4ccccc4[nH]2)CC3)CCC1 [Example 154, 5-(1H-indole-2-carbonyl)-N-[1-(methoxymethyl)cyclobutyl]-N-methyl-1H,4H,5H,6H,7H-pyrazolo[4,3-c]pyridine-3-carboxamide] | < 1 | > 10 | 5 to 10 |
| COCC1(N(C)C(=O)c2n[nH]c3c2CN(C(=O)c2cc4ccccc4[nH]2)CC3)CC1 [Example 155, 5-(1H-indole-2-carbonyl)-N-[1-(methoxymethyl)cyclopropyl]-N-methyl-1H,4H,5H,6H,7H-pyrazolo[4,3-c]pyridine-3-carboxamide] | < 1 | > 10 | < 5 |
| O=C(c1cc2ccccc2[nH]1)N1CCc2[nH]nc(C(=O)N3CC[C@@H](O)C3)c2C1 [Example 156, (3R)-1-[5-(1H-indole-2-carbonyl)-1H,4H,5H,6H,7H-pyrazolo[4,3-c]pyridine-3-carbonyl]pyrrolidin-3-ol] | 1 to 25 | > 10 | < 100 |
| O=C(c1cc2ccccc2[nH]1)N1CCc2[nH]nc(C(=O)N3CC[C@H](O)C3)c2C1 [Example 157, (3S)-1-[5-(1H-indole-2-carbonyl)-1H,4H,5H,6H,7H-pyrazolo[4,3-c]pyridine-3-carbonyl]pyrrolidin-3-ol] | 1 to 25 | > 10 | < 100 |
| O=C(c1cc2ccccc2[nH]1)N1CCc2[nH]nc(C(=O)N3CCS(=O)(=O)CC3)c2C1 [Example 158, 4-[5-(1H-indole-2-carbonyl)-1H,4H,5H,6H,7H-pyrazolo[4,3-c]pyridine-3-carbonyl]-1lambda6-thiomorpholine-1,1-dione] | 1 to 25 | > 10 | < 100 |
| O=C(c1cc2ccccc2[nH]1)N1CCc2[nH]nc(C(=O)N3CCSCC3)c2C1 [Example 159, 2-[3-(thiomorpholine-4-carbonyl)-1H,4H,5H,6H,7H-pyrazolo[4,3-c]pyridine-5-carbonyl]-1H-indole] | < 1 | > 10 | < 5 |
| COC1CCN(C(=O)c2n[nH]c3c2CN(C(=O)c2cc4ccccc4[nH]2)CC3)CC1 [Example 160, 2-[3-(4-methoxypiperidine-1-carbonyl)-1H,4H,5H,6H,7H-pyrazolo[4,3-c]pyridine-5-carbonyl]-1H-indole] | < 1 | > 10 | < 100 |
| O=C(c1cc2ccccc2[nH]1)N1CCc2[nH]nc(C(=O)N3CCC[C@@H](O)C3)c2C1 [Example 161, (3R)-1-[5-(1H-indole-2-carbonyl)-1H,4H,5H,6H,7H-pyrazolo[4,3-c]pyridine-3-carbonyl]piperidin-3-ol] | < 1 | > 10 | 5 to 10 |
| O=C(c1cc2ccccc2[nH]1)N1CCc2[nH]nc(C(=O)N3CCC[C@H](O)C3)c2C1 [Example 162, (3S)-1-[5-(1H-indole-2-carbonyl)-1H,4H,5H,6H,7H-pyrazolo[4,3-c]pyridine-3-carbonyl]piperidin-3-ol] | 1 to 25 | > 10 | < 100 |
| CC(=O)N1CCN(C(=O)c2n[nH]c3c2CN(C(=O)c2cc4ccccc4[nH]2)CC3)C(C)(C)C1 [Example 163, 1-{4-[5-(1H-indole-2-carbonyl)-1H,4H,5H,6H,7H-pyrazolo[4,3-c]pyridine-3-carbonyl]-3,3-dimethylpiperazin-1-yl}ethan-1-one] | 1 to 25 | > 10 | < 100 |
| CC1(C)CCCCN1C(=O)c1n[nH]c2c1CN(C(=O)c1cc3ccccc3[nH]1)CC2 [Example 165, 2-[3-(2,2-dimethylpiperidine-1-carbonyl)-1H,4H,5H,6H,7H-pyrazolo[4,3-c]pyridine-5-carbonyl]-1H-indole] | < 1 | > 10 | 5 to 10 |
| COCC1(N(C)C(=O)c2n[nH]c3c2CN(C(=O)c2cc4ccc(F)cc4[nH]2)CC3)CC1 [Example 166, 5-(6-fluoro-1H-indole-2-carbonyl)-N-[1-(methoxymethyl)cyclopropyl]-N-methyl-1H,4H,5H,6H,7H-pyrazolo[4,3-c]pyridine-3-carboxamide] | < 1 | > 10 | < 5 |
| O=C(c1cc2ccccc2[nH]1)N1CCc2[nH]nc(C3CCC3)c2C1 [Example 167, 2-{3-cyclobutyl-1H,4H,5H,6H,7H-pyrazolo[4,3-c]pyridine-5-carbonyl}-1H-indole] | < 1 | > 10 | < 5 |
| CN(C(=O)c1n[nH]c2c1CN(C(=O)c1cc3ccccc3[nH]1)CC2)C1CCCCC1 [Example 170, N-cyclohexyl-5-(1H-indole-2-carbonyl)-N-methyl-1H,4H,5H,6H,7H-pyrazolo[4,3-c]pyridine-3-carboxamide] | 1 to 25 | > 10 | 5 to 10 |
| CN(CC(=O)OC(C)(C)C)C(=O)c1n[nH]c2c1CN(C(=O)c1cc3ccccc3[nH]1)CC2 [Example 171, tert-butyl 2-{1-[5-(1H-indole-2-carbonyl)-1H,4H,5H,6H,7H-pyrazolo[4,3-c]pyridin-3-yl]-N-methylformamido}acetate] | 1 to 25 | > 10 | < 100 |
| CN(CCO)C(=O)c1n[nH]c2c1CN(C(=O)c1cc3c(C(F)F)ccc(F)c3[nH]1)CC2 [Example 172, 5-[4-(difluoromethyl)-7-fluoro-1H-indole-2-carbonyl]-N-(2-hydroxyethyl)-N-methyl-1H,4H,5H,6H,7H-pyrazolo[4,3-c]pyridine-3-carboxamide] | 1 to 25 | > 10 | < 5 |
| CN(C(=O)c1n[nH]c2c1CN(C(=O)c1cc3ccccc3[nH]1)CC2)[C@H]1CC[C@H](O)CC1 [Example 173, 5-(1H-indole-2-carbonyl)-N-methyl-N-[(1r,4r)-4-hydroxycyclohexyl]-1H,4H,5H,6H,7H-pyrazolo[4,3-c]pyridine-3-carboxamide] | 1 to 25 | > 10 | < 100 |
| CN(C(=O)c1n[nH]c2c1CN(C(=O)c1cc3ccccc3[nH]1)CC2)[C@H]1CC[C@@H](O)CC1 [Example 174, 5-(1H-indole-2-carbonyl)-N-methyl-N-[(1s,4s)-4-hydroxycyclohexyl]-1H,4H,5H,6H,7H-pyrazolo[4,3-c]pyridine-3-carboxamide] | 1 to 25 | > 10 | < 100 |
